Results reported in patent publication US7919493B2, “Anititumoral ecteinascidin derivatives” (Pharma Mar, S.A., priority 2001, dated 2011).
≈ marks a conversion by molar mass, not a printed value.

Legend:
Type in all cases: cell-based
HT29 = assay: Cytotoxic assay, sulforhodamine B (SRB), HT29; conditions: Homo sapiens, HT-29; HT29 cells, 48 hours exposure, SRB method
Text: (§1) A colorimetric type of assay, using sulforhodamine B (SRB) reaction has been adapted for a quantitative measurement of cell growth and viability (following the technique described by Skehan P et al. J. Natl. Cancer Inst. 1990, 82, 1107-1112).
(§2) This form of assay employs 96-well cell culture microplates of 9 mm diameter (Faircloth et al. Methods in cell science, 1988, 11(4), 201-205; Mosmann et al, Journal of. Immunological. Methods, 1983, 65(1-2), 55-63). Most of the cell lines are obtained from American Type Culture Collection (ATCC) derived from different human cancer types. Cells are maintained in RPMI 1640 10% FBS, supplemented with 0.1 g/L penicillin and 0.1 g/l streptomycin sulfate and then incubated at 37° C., 5% CO2 and 98% humidity. For the experiments, cells were harvested from subconfluent cultures using trypsin and resuspended in fresh medium before counting and plating.
(§3) Cells were seeded in 96 well microtiter plates at 5×10^3 cells per well in aliquots of 195 μL medium, and allowed to attach to the plate surface for 18 hours in drug free medium. Afterwards, samples are in aliquots of 5 μL in a ranging from 10 to 10-8 μg/mL dissolved in DMSO/ETOH (0.2% in PS buffer). After 48 hours exposure, the antitumor effect are measured by the SRB method: cells are fixed by adding 50 μL of cold 50% (w/v) trichloroacetic acid and incubating for 60 minutes at 4° C. Plates are washed with deionised water and dried. 100 μL of SRB solution (0.4% w/v in 1% acetic acid) is added to each microtiter well and incubated for 10 minutes at room temperature. Unbound SRB is removed by washing with 1% acetic acid. Plates are air-dried and bound stain is solubilized with Tris Buffer. Optical densities are read on an automated spectrophotometric plate reader at a single wavelength of 490 nm.
(§4) The values for mean ±SD of data from triplicate wells are calculated. GI50 (concentration that produces 50% growth inhibition) parameter was calculated (NCI algorithm) by automatic interpolation.

A549 = assay: Cytotoxic assay, sulforhodamine B (SRB), A549; conditions: Homo sapiens; A549 cells, 48 hours exposure, SRB method
Text: as §1, §2, §3, §4

DU-14S = assay: Cytotoxic assay, sulforhodamine B (SRB), DU-14S; conditions: Homo sapiens; DU-14S cells, 48 hours exposure, SRB method
Text: as §1, §2, §3, §4

MEL-28 = assay: Cytotoxic assay, sulforhodamine B (SRB), MEL-28; conditions: Homo sapiens, SK-MEL-28; MEL-28 cells, 48 hours exposure, SRB method
Text: as §1, §2, §3, §4

DU-145 = assay: Cytotoxic activity screening, DU-145 cells; conditions: Homo sapiens, DU-145, DU-145 cells
[1] = tested on: P-388 (suspension culture of a lymphoid neoplasm from DBA/2 mouse); assay: Cytotoxic activity screening, P-388 cells; conditions: Mus musculus, P388, 72 h, three days of incubation, approximate IC50 vs control growth
Procedure, shortened: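 P-388 murine lymphoid cells seeded at 1×10^4 cells/well in MEM with 5% FCS containing drug at the stated concentrations, run in duplicate. Untreated wells served as growth controls to confirm exponential growth.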

[2] = tested on: HT-29 (monolayer culture of a human colon carcinoma); assay: Cytotoxic activity screening, HT-29 cells; conditions: Homo sapiens, HT-29, 72 h, three days of incubation, Crystal Violet, approximate IC50
[3] = tested on: MEL-28 (monolayer culture of a human melanoma); assay: Cytotoxic activity screening, MEL-28 cells; conditions: Homo sapiens, SK-MEL-28, 72 h, three days of incubation, Crystal Violet, approximate IC50
Procedure, shortened: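 Human monolayer lines seeded at 2×10^4 cells/well in MEM with 10% FCS containing drug, in duplicate. After 3 days at 37° C, 10% CO2, wells stained with 0.1% Crystal Violet. Approximate IC50 estimated from growth versus drug-free controls.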

[4] = tested on: A-549 (monolayer culture of a human lung carcinoma); assay: Cytotoxic activity screening, A-549 cells; conditions: Homo sapiens, A549, 72 h, three days of incubation, Crystal Violet, approximate IC50

Row | Compound | GI50 (HT29) [nM] | GI50 (A549) [nM] | GI50 (DU-14S) [nM] | GI50 (MEL-28) [nM] | IC50 (DU-145) [ng/mL] | IC50 [1] [ng/mL] | IC50 [2] [ng/mL] | IC50 [3] [ng/mL] | IC50 [4] [ng/mL]
1 | COc1c(C)cc2c(c1O)[C@@H]1[C@@H]3[C@@H]4SC[C@H](NC(=O)c5cc(C)on5)C(=O)OC[C@@H](c5c6c(c(C)c(OC(C)=O)c54)OCO6)N3[C@@H](O)[C@H](C2)N1C [Compound 16f] | 4.3 | 3.47 | 3.4 | 5.13 | – | – | – | – | –
2 | COc1c(C)cc2c(c1O)[C@@H]1[C@@H]3[C@@H]4SC[C@H](NC(=O)[C@@H]5CCCN5)C(=O)OC[C@@H](c5c6c(c(C)c(OC(C)=O)c54)OCO6)N3[C@@H](C#N)[C@H](C2)N1C [Compound 15f] | 0.278 | 2.78 | – | – | – | – | – | – | –
3 | COc1c(C)cc2c(c1O)[C@@H]1[C@@H]3[C@@H]4SC[C@H](NC(=O)c5cc6ccccc6oc5=O)C(=O)OC[C@@H](c5c6c(c(C)c(OC(C)=O)c54)OCO6)N3[C@@H](C#N)[C@H](C2)N1C [Compound 15a] | 4.38 | 2.83 | 4.38 | 3.23 | – | – | – | – | –
4 | COc1c(C)cc2c(c1O)[C@@H]1[C@@H]3[C@@H]4SC[C@H](NC(=O)c5cnn(-c6ccccc6)c5C(F)(F)F)C(=O)OC[C@@H](c5c6c(c(C)c(OC(C)=O)c54)OCO6)N3[C@@H](O)[C@H](C2)N1C [Compound 16e] | 38.6 | 35.1 | 27.2 | 29.8 | – | – | – | – | –
5 | COc1c(C)cc2c(c1O)[C@@H]1[C@@H]3[C@@H]4SC[C@H](NC(=O)c5cc6ccccc6oc5=O)C(=O)OC[C@@H](c5c6c(c(C)c(OC(C)=O)c54)OCO6)N3[C@@H](O)[C@H](C2)N1C [Compound 16a] | 3.94 | 2.94 | 4.73 | 3.02 | – | – | – | – | –
6 | COc1c(C)cc2c(c1O)[C@@H]1[C@@H]3[C@@H]4SC[C@H](NC(=O)c5cccnc5Cl)C(=O)OC[C@@H](c5c6c(c(C)c(OC(C)=O)c54)OCO6)N3[C@@H](C#N)[C@H](C2)N1C [Compound 15c] | 2.93 | 1.8 | 0.468 | 1.21 | – | – | – | – | –
7 | COc1c(C)cc2c(c1O)[C@@H]1[C@@H]3[C@@H]4SC[C@H](NC(=O)[C@@H]5CCCN5)C(=O)OC[C@@H](c5c6c(c(C)c(OC(C)=O)c54)OCO6)N3[C@@H](O)[C@H](C2)N1C [Compound 16c] | 0.0422 | 5.63 | 1.13 | 0.281 | – | – | – | – | –
8 | COc1c(C)cc2c(c1O)[C@@H]1[C@@H]3[C@@H]4SC[C@H](NC(=O)[C@@H]5CCCN5C(=O)OC(C)(C)C)C(=O)OC[C@@H](c5c6c(c(C)c(OC(C)=O)c54)OCO6)N3[C@@H](C#N)[C@H](C2)N1C [Compound 15b] | 3.66 | 7.32 | – | – | – | – | – | – | –
9 | COc1c(C)cc2c(c1O)[C@@H]1[C@@H]3[C@@H]4SC[C@H](NC(=O)[C@@H]5CCCN5C(=O)OC(C)(C)C)C(=O)OC[C@@H](c5c6c(c(C)c(OC(C)=O)c54)OCO6)N3[C@@H](O)[C@H](C2)N1C [Compound 16b] | 1.23 | 1.23 | 0.37 | 1.11 | – | – | – | – | –
10 | COc1c(C)cc2c(c1O)[C@@H]1[C@@H]3[C@@H]4SC[C@H](NC(=O)c5cnn(-c6ccccc6)c5C(F)(F)F)C(=O)OC[C@@H](c5c6c(c(C)c(OC(C)=O)c54)OCO6)N3[C@@H](C#N)[C@H](C2)N1C [Compound 15d] | 10.1 | 14.6 | – | – | – | – | – | – | –
11 | COc1c(C)cc2c(c1O)[C@@H]1[C@@H]3[C@@H]4SC[C@H](NC(=O)c5cccnc5Cl)C(=O)OC[C@@H](c5c6c(c(C)c(OC(C)=O)c54)OCO6)N3[C@@H](O)[C@H](C2)N1C [Compound 16d] | 13300 | 1330 | 2.16 | 2.5 | – | – | – | – | –
12 | COc1c(C)cc2c(c1O)[C@@H]1[C@@H]3[C@@H]4SC[C@H](NC(=O)c5cc(C)on5)C(=O)OC[C@@H](c5c6c(c(C)c(OC(C)=O)c54)OCO6)N3[C@@H](C#N)[C@H](C2)N1C [Compound 15e] | 5.36 | 5.77 | 3.84 | 2.58 | – | – | – | – | –
13 | COc1c(C)cc2c(c1O)[C@@H]1C3[C@@H]4SCC(NCc5ccccc5)C(=O)OC[C@@H](c5c6c(c(C)c(OC(C)=O)c54)OCO6)N3[C@@H](O)[C@H](C2)N1C (stereo partly drawn) [Compound 4n] | – | – | – | – | 0.5 (≈ 0.71 nM) | 0.5 (≈ 0.71 nM) | 0.5 (≈ 0.71 nM) | 0.5 (≈ 0.71 nM) | 0.5 (≈ 0.71 nM)
14 | COc1c(C)cc2c(c1O)[C@@H]1C3[C@@H]4SC[C@H](O)C(=O)OC[C@@H](c5c6c(c(C)c(OC(C)=O)c54)OCO6)N3[C@@H](O)[C@H](C2)N1C (stereo partly drawn) [Compound 19] | – | – | – | – | 1 (≈ 1.63 nM) | 1 (≈ 1.63 nM) | 1 (≈ 1.63 nM) | 1 (≈ 1.63 nM) | 1 (≈ 1.63 nM)
15 | COc1c(C)cc2c(c1O)[C@@H]1C3[C@@H]4SC[C@H](NC(=O)C(F)(F)F)C(=O)OC[C@@H](c5c6c(c(C)c(OC(C)=O)c54)OCO6)N3[C@@H](C#N)[C@H](C2)N1C (stereo partly drawn) [Compound 3b] | – | – | – | – | 1 (≈ 1.39 nM) | 1 (≈ 1.39 nM) | 1 (≈ 1.39 nM) | 1 (≈ 1.39 nM) | 1 (≈ 1.39 nM)
16 | COc1c(C)cc2c(c1O)[C@@H]1C3[C@@H]4SC[C@H](NC(=O)C(NC(=O)C(C)NC(C)=O)C(C)C)C(=O)OC[C@@H](c5c6c(c(C)c(OC(C)=O)c54)OCO6)N3[C@@H](C#N)[C@H](C2)N1C (stereo partly drawn) [Compound 3t] | – | – | – | – | 10 (≈ 12 nM) | 10 (≈ 12 nM) | 10 (≈ 12 nM) | 10 (≈ 12 nM) | 10 (≈ 12 nM)
17 | COc1c(C)cc2c(c1O)[C@@H]1C3[C@@H]4SC[C@@H](NC(C)=O)C(=O)OC[C@@H](c5c6c(c(C)c(OC(C)=O)c54)OCO6)N3[C@@H](O)[C@H](C2)N1C (stereo partly drawn) [Compound 4a] | – | – | – | – | 0.1 (≈ 0.153 nM) | 0.1 (≈ 0.153 nM) | 0.1 (≈ 0.153 nM) | 0.5 (≈ 0.763 nM) | 0.5 (≈ 0.763 nM)
18 | COc1c(C)cc2c(c1O)[C@@H]1C3[C@@H]4SC[C@H](NC(=O)C(NC(C)=O)C(C)C)C(=O)OC[C@@H](c5c6c(c(C)c(OC(C)=O)c54)OCO6)N3[C@@H](O)[C@H](C2)N1C (stereo partly drawn) [Compound 4q] | – | – | – | – | 1 (≈ 1.32 nM) | 1 (≈ 1.32 nM) | 1 (≈ 1.32 nM) | 1 (≈ 1.32 nM) | 1 (≈ 1.32 nM)
